Assay results published in PMC6440567 (Clinical and Translational Science, 2018).

What was measured:
[1] = Individual predicted steady‐state exposures; format: in vivo, human; details: for AUC / Cmax: human, plasma
[2] = Final ceftazidime PopPK model; format: in vivo, human
[3] = taken to be; ref not given; cited from earlier work

## CC(C)(O/N=C(\C(=O)N[C@@H]1C(=O)N2C(C(=O)[O-])=C(C[n+]3ccccc3)CS[C@H]12)c1csc(N)n1)C(=O)O [Ceftazidime, ceftazidime]
[1]; AUCss,0–24 geometric mean (CV), Age (years) 18–65
  AUC: 800 µg·h/mL
[1]; AUCss,0–24 geometric mean (CV), Age (years) > 65–75
  AUC: 997 µg·h/mL
[1]; AUCss,0–24 geometric mean (CV), Age (years) > 75–89
  AUC: 1100 µg·h/mL
[1]; AUCss,0–24 geometric mean (CV), Asian population: China (only)
  AUC: 892 µg·h/mL
[1]; AUCss,0–24 geometric mean (CV), Asian population: Japan
  AUC: 1020 µg·h/mL
[1]; AUCss,0–24 geometric mean (CV), Baseline WBC count Missing
  AUC: 924 µg·h/mL
[1]; AUCss,0–24 geometric mean (CV), Concomitant use of OAT1/OAT3 inhibitor(s): No
  AUC: 869 µg·h/mL
[1]; AUCss,0–24 geometric mean (CV), Concomitant use of OAT1/OAT3 inhibitor(s): Yes
  AUC: 934 µg·h/mL
[1]; AUCss,0–24 geometric mean (CV), Fever at baseline: Missing
  AUC: 929 µg·h/mL
[1]; AUCss,0–24 geometric mean (CV), Fever at baseline: No
  AUC: 888 µg·h/mL
[1]; AUCss,0–24 geometric mean (CV), Fever at baseline: Yes
  AUC: 859 µg·h/mL
[1]; AUCss,0–24 geometric mean (CV), Obesity I (29.9 ≤ BMI < 34.9 kg/m^2)
  AUC: 841 µg·h/mL
[1]; AUCss,0–24 geometric mean (CV), Obesity II (34.9 ≤ BMI < 39.9 kg/m^2)
  AUC: 894 µg·h/mL
[1]; AUCss,0–24 geometric mean (CV), Obesity III (BMI ≥ 39.9 kg/m^2)
  AUC: 806 µg·h/mL
[1]; AUCss,0–24 geometric mean (CV), Obesity: Missing
  AUC: 959 µg·h/mL
[1]; AUCss,0–24 geometric mean (CV), Obesity: Normal
  AUC: 878 µg·h/mL
[1]; AUCss,0–24 geometric mean (CV), Race: Asian (non‐Chinese; non‐Japanese)
  AUC: 968 µg·h/mL
[1]; AUCss,0–24 geometric mean (CV), Race: Chinese and Taiwanese
  AUC: 884 µg·h/mL
[1]; AUCss,0–24 geometric mean (CV), Race: Japanese
  AUC: 1020 µg·h/mL
[1]; AUCss,0–24 geometric mean (CV), Race: White/other
  AUC: 848 µg·h/mL
[1]; C max,ss geometric mean (CV), Age (years) 18–65
  Cmax: 70 µg/mL
[1]; C max,ss geometric mean (CV), Age (years) > 65–75
  Cmax: 77.1 µg/mL
[1]; C max,ss geometric mean (CV), Age (years) > 75–89
  Cmax: 76.8 µg/mL
[1]; C max,ss geometric mean (CV), Asian population: China (only)
  Cmax: 78.4 µg/mL
[1]; C max,ss geometric mean (CV), Asian population: Japan
  Cmax: 90.4 µg/mL
[1]; C max,ss geometric mean (CV), Asian population: Korea
  Cmax: 79.9 µg/mL
[1]; C max,ss geometric mean (CV), Concomitant use of OAT1/OAT3 inhibitor(s): No
  Cmax: 71.7 µg/mL
[1]; C max,ss geometric mean (CV), Concomitant use of OAT1/OAT3 inhibitor(s): Yes
  Cmax: 78.5 µg/mL
[1]; C max,ss geometric mean (CV), Fever at baseline: Missing
  Cmax: 75.1 µg/mL
[1]; C max,ss geometric mean (CV), Fever at baseline: No
  Cmax: 71.9 µg/mL
[1]; C max,ss geometric mean (CV), Fever at baseline: Yes
  Cmax: 72.1 µg/mL
[1]; C max,ss geometric mean (CV), Obesity I (29.9 ≤ BMI < 34.9 kg/m^2)
  Cmax: 67.9 µg/mL
[1]; C max,ss geometric mean (CV), Obesity II (34.9 ≤ BMI < 39.9 kg/m^2)
  Cmax: 73.7 µg/mL
[1]; C max,ss geometric mean (CV), Obesity III (BMI ≥ 39.9 kg/m^2)
  Cmax: 64.2 µg/mL
[1]; C max,ss geometric mean (CV), Obesity: Missing
  Cmax: 70.9 µg/mL
[1]; C max,ss geometric mean (CV), Obesity: Normal
  Cmax: 73 µg/mL
[1]; C max,ss geometric mean (CV), Race: Asian (non‐Chinese; non‐Japanese)
  Cmax: 82.2 µg/mL
[1]; C max,ss geometric mean (CV), Race: Chinese and Taiwanese
  Cmax: 77.6 µg/mL
[1]; C max,ss geometric mean (CV), Race: Japanese
  Cmax: 90.4 µg/mL
[1]; C max,ss geometric mean (CV), Race: White/other
  Cmax: 68.6 µg/mL
[1]; intravenous
  AUC: 748 µg·h/mL
  Cmax: 67 µg/mL
[1]; intravenous, 187.5 mg, AUCss,0–24 geometric mean (CV), Day 3 CrCL 8–15 mL/min (750‐187.5 mg q24 h)
  AUC: 551 µg·h/mL
[1]; intravenous, 187.5 mg, C max,ss geometric mean (CV), Day 3 CrCL 8–15 mL/min (750‐187.5 mg q24 h)
  Cmax: 34.3 µg/mL
[1]; intravenous, 500 mg, AUCss,0–24 geometric mean (CV), Day 3 CrCL > 150–180 mL/min (2000‐500 mg q8 h)
  AUC: 652 µg·h/mL
[1]; intravenous, 500 mg, C max,ss geometric mean (CV), Day 3 CrCL > 150–180 mL/min (2000‐500 mg q8 h)
  Cmax: 58.5 µg/mL
[1]; intravenous, AUCss,0–24 geometric mean (CV), Asian population: Korea
  AUC: 952 µg·h/mL
[1]; intravenous, AUCss,0–24 geometric mean (CV), Asian population: Taiwan
  AUC: 728 µg·h/mL
[1]; intravenous, AUCss,0–24 geometric mean (CV), Asian population: Vietnam
  AUC: 852 µg·h/mL
[1]; intravenous, AUCss,0–24 geometric mean (CV), Bacteremia at baseline: No
  AUC: 881 µg·h/mL
[1]; intravenous, AUCss,0–24 geometric mean (CV), Bacteremia at baseline: Yes
  AUC: 919 µg·h/mL
[1]; intravenous, AUCss,0–24 geometric mean (CV), Baseline APACHE II score > 10
  AUC: 938 µg·h/mL
[1]; intravenous, AUCss,0–24 geometric mean (CV), Baseline APACHE II score Missing
  AUC: 979 µg·h/mL
[1]; intravenous, AUCss,0–24 geometric mean (CV), Baseline WBC count (cells/μL) > 12,000
  AUC: 801 µg·h/mL
[1]; intravenous, AUCss,0–24 geometric mean (CV), Baseline WBC count (cells/μL) ≤ 12,000
  AUC: 923 µg·h/mL
[1]; intravenous, AUCss,0–24 geometric mean (CV), Patient population: NP
  AUC: 950 µg·h/mL
[1]; intravenous, AUCss,0–24 geometric mean (CV), Patient population: Non‐VAP
  AUC: 1020 µg·h/mL
[1]; intravenous, AUCss,0–24 geometric mean (CV), Patient population: VAP
  AUC: 830 µg·h/mL
[1]; intravenous, AUCss,0–24 geometric mean (CV), Patient population: cIAI
  AUC: 749 µg·h/mL
[1]; intravenous, AUCss,0–24 geometric mean (CV), Patient population: cUTI
  AUC: 979 µg·h/mL
[1]; intravenous, AUCss,0–24 geometric mean (CV), SIRS at baseline: Missing
  AUC: 977 µg·h/mL
[1]; intravenous, AUCss,0–24 geometric mean (CV), SIRS at baseline: No
  AUC: 895 µg·h/mL
[1]; intravenous, AUCss,0–24 geometric mean (CV), SIRS at baseline: Yes
  AUC: 869 µg·h/mL
[1]; intravenous, C max,ss geometric mean (CV), Asian population: Taiwan
  Cmax: 59.4 µg/mL
[1]; intravenous, C max,ss geometric mean (CV), Asian population: Vietnam
  Cmax: 78.6 µg/mL
[1]; intravenous, C max,ss geometric mean (CV), Bacteremia at baseline: No
  Cmax: 71.9 µg/mL
[1]; intravenous, C max,ss geometric mean (CV), Bacteremia at baseline: Yes
  Cmax: 73.6 µg/mL
[1]; intravenous, C max,ss geometric mean (CV), Baseline APACHE II score > 10
  Cmax: 72.3 µg/mL
[1]; intravenous, C max,ss geometric mean (CV), Baseline APACHE II score Missing
  Cmax: 77.9 µg/mL
[1]; intravenous, C max,ss geometric mean (CV), Baseline WBC count (cells/μL) > 12,000
  Cmax: 67.6 µg/mL
[1]; intravenous, C max,ss geometric mean (CV), Baseline WBC count (cells/μL) ≤ 12,000
  Cmax: 74.6 µg/mL
[1]; intravenous, C max,ss geometric mean (CV), Patient population: NP
  Cmax: 72.9 µg/mL
[1]; intravenous, C max,ss geometric mean (CV), Patient population: Non‐VAP
  Cmax: 79 µg/mL
[1]; intravenous, C max,ss geometric mean (CV), Patient population: VAP
  Cmax: 61.9 µg/mL
[1]; intravenous, C max,ss geometric mean (CV), Patient population: cIAI
  Cmax: 66.9 µg/mL
[1]; intravenous, C max,ss geometric mean (CV), Patient population: cUTI
  Cmax: 77.9 µg/mL
[1]; intravenous, C max,ss geometric mean (CV), SIRS at baseline: Missing
  Cmax: 83.5 µg/mL
[1]; intravenous, C max,ss geometric mean (CV), SIRS at baseline: No
  Cmax: 72.3 µg/mL
[1]; intravenous, C max,ss geometric mean (CV), SIRS at baseline: Yes
  Cmax: 71.5 µg/mL
[1]; most patient subgroups
  difference in steady‐state exposure vs. healthy volunteers: ≤ 20%
[1]; patients with VAP vs non‐VAP patients
  lower C max,ss: ~ 20%
[2]; Asian compared with non‐Asian patients
  lower V c: 27%
[2]; Chinese patients vs non‐Asians
  lower CL: 9%
[2]; CrCL effect on CL
  Slope 1: CrCL < 100 mL/min, slope1*CrCL: 0.0103
[2]; body weight at 10th percentile (50 kg) vs median weight (70 kg)
  lower V c: 24%
[2]; human, plasma, intravenous, θ1: CL, typical value
  clearance: 116 mL/min
[2]; in vivo
  θ9: Population effect on V c (cUTI): 1.03
  θ10: Population effect on V c (cIAI or NP): 1.14
  θ13: WT effect on V c: 1.01
  θ14: Population effect on V c (NPv): 0.297
[2]; non‐Chinese, non‐Japanese Asians vs non‐Asians
  lower CL: 16%
[2]; patients with NPv vs non‐NPv patients
  higher V c: 29.7%
[2]; patients with cIAI vs. healthy subjects and patients with cUTI
  higher CL: 16%
[2]; typical value
  θ2: V c: 10.5 L
  θ3: Q: 31.5 L/h
  θ4: V p: 7.57 L
[3]
  free plasma concentrations as % of total plasma concentrations: 85%
